Results taken from publication PMC6662706, “Short amylin receptor antagonist peptides improve memory deficits in Alzheimer’s disease mouse model” (Scientific Reports, 2019).
No end group written: not given here.

Legend:
AMY3 receptor = biological target: T1, AMY3 receptor (Homo sapiens, UniProt O60896+P30988); assay: Block of hAmylin-evoked cAMP generation in HEK-AMY3 cells; type: cell-based; settings: peptide 30 min then hAmylin 1 pM–10 µM 30 min, peptides 10 µM (Fig. 1E legend), 1 µM (supplement method)
T1 construct: expressed in transfected cells
T1 sequence (P30988 25-474): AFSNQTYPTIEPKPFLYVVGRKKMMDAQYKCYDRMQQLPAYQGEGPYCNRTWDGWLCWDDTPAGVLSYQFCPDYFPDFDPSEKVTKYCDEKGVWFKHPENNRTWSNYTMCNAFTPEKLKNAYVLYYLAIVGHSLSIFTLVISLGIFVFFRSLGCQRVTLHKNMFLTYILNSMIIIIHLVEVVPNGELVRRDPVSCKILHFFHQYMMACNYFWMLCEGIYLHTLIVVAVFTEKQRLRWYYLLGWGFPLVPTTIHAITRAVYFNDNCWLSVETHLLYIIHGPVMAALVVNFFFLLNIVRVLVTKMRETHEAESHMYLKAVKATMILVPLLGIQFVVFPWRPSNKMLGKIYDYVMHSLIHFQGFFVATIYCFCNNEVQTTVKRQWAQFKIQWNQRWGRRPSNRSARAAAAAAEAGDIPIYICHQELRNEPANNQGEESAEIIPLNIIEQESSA
T1 sequence (O60896 24-148): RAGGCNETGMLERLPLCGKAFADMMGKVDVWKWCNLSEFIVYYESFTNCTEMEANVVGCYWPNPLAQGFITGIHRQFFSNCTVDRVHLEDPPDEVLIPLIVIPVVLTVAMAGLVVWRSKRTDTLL
Excerpt: (§1) Human amylin is a potent agonist at amylin receptor stimulating cAMP production in cells. In the first in vitro bioassay, we examined ability of R5 and R14 to block the hAmylin-evoked cAMP generation in HEK-AMY3 cells. R11 peptide served as a negative control. […] In a second in vitro assay, we examined whether peptides R5, and R14 could protect human fetal neurons (HFNs) and N2a (mouse neuroblastoma cell line) from Αβ1–42 induced cytotoxicity.
(§2) A shorter peptide library was derived from AC253 peptide sequence comprising 12–14 amino acid peptides. […] To determine the activity of these shorter peptides to block AMY3 receptor signaling, cellular cAMP levels (measured using a parameter cyclic AMP assay kit, R&D Systems) and phosphorylation ERK1/2 (Western blot) were measured. We assessed neuroprotective properties of the peptide fragments against Aβ cytotoxicity in vitro using the MTT assay in N2a cell line and human fetal neurons (HFNs), which were prepared from 12- to 15-gestational week fetuses with approval of the Human Ethics Research Board at the University of Alberta as previously reported[17],[19].
For cAMP measurements, HEK-AMY3 cells were plated on 24-well plates overnight. […] Cellular cAMP levels were measured using a parameter cyclic AMP assay kit (R&D Systems) according to the manufacturer’s instructions. […]

[1] = tested on: ERK1/2 signaling pathway downstream of AMY3 receptor; assay: hAmylin-evoked phosphoERK1/2 in HEK-AMY3 cells; type: cell-based; settings: peptides 10 μM, hAmylin 1 μM, n = 3
Excerpt: as §1, §2
Intracellular signaling profiles were determined using in-cell Western blot techniques as previously described ^8. […]

Substance	block of hAmylin-evoked cAMP increases (AMY3 receptor)	effect on increases in phosphoERK1/2 evoked by hAmylin [1]
LGRLSQELHRLQTYPRTNTGSNTY-NH2 (C-terminus assumed) [AC253, reference compound]	inhibited	reduce increases in phosphoERK1/2
SQELHRLQTYPR-NH2 [R5]	blocked the cAMP increases in a dose-dependent manner	reduce increases in phosphoERK1/2
